Laboratory results as given in US20120059021A1, “COMPOSITIONS AND METHODS FOR TREATING CANCER AND METHODS FOR PREDICTING A RESPONSE TO SUCH TREATMENTS” (UNIVERSITY OF WASHINGTON, priority 2008, published 2012).

Experiments:
[1] = system: A2058; test: Flow cytometry for active (cleaved) caspase-3, A2058; format: cell-based, human; conditions: 2 uM PLX4720, 24 hours, in % (unit assumed)
Procedure: (§1) Flow cytometry for Active Caspase-3. Cells were seeded in a 6-well dish at a density to achieve 90-100% confluence at harvest. 24 hours after seeding, cells were treated with the indicated conditions for the indicated amount of time. At the time of collection, supernatants were collected and pooled with trypsinized cells. Cells were fixed with 4% paraformaldehyde and permeabilized according to vendor's protocol for Cleaved Caspase-3 (Asp175) Antibody (AlexaFluor 488 Conjugate) (catalog #9669) (Cell Signaling, Beverly Mass.). The antibody was used at a final dilution of 1:100. Flow was performed on a BD FACSCanto H, and data analysed with FlowJo 8.8.6 (Tree Star) software. Experiments were performed with biological triplicates and data are representative of at least three independent experiments.
(§2) For experiments involving siRNAs, cells were reverse transfected with 20 nM siRNA in 6-well dishes in triplicate with RNAiMax according to manufacturer's protocol. 48 hours following transfection, cells were treated with the indicated conditions for 24 hours and then harvested for analysis. Cells were harvested, stained, and analyzed as described above.

[2] = system: SKMEL28; test: Flow cytometry for active (cleaved) caspase-3, SKMEL28; format: cell-based, human; conditions: 2 uM PLX4720, 24 hours, in % (unit assumed)
Procedure: as §1, §2

[3] = system: BAD and Bim (BCL2L11); test: Immunoblot of BH3-only proteins BAD and Bim in A375 cells; format: cell-based, human
[4] = system: A375 melanoma cells; test: Isobologram analysis of cell viability (CellTiter-Glo); format: cell-based, human
Procedure: Isobologram Analysis of Cell Viability. A375 melanoma cells were seeded in 96-well plates at a concentration of 8,000 cells/well in 100 μl of growth media. 24 hours after plating, cells were treated with all combinations of 2-fold dilutions of WNT3A CM ranging from 20% to 0% and 2-fold dilutions of PLX4720 ranging from 5 μM-0 μM for 48 hours. 10 uL of CellTiter-Glo (Promega Madison, Wis.) was added to each well and total luminescence was measured on an Envision multilabel plate reader (Perkin Elmer Waltham, Mass.). Each condition within an experiment was assayed in triplicate wells and three independent experiments were performed.
Dose-effect analyses, including combination indices, dose reduction indices and median-effect analysis for FIGS. 9A-9C and FIGS. 11A-11C were performed using the method of Chou and Talay (55) via the CalcuSyn software suite (Biosoft, Cambridge UK), version 2.1.

[5] = system: human A375 melanoma cells grown as xenografts; test: Xenograft assay, A375:GFP or A375:WNT3A tumors in NSG mice; format: in vivo, mouse; conditions: 50 mg/kg PLX4720 oral gavage once daily
Procedure: Xenograft assays. NSG (NOD/SCID/IL2r-gamma (null)) mice were injected with 5×10^5 A375 cells stably expressing GFP or 5×10^5 A375 cells stably expressing WNT3A-IRES-GFP. Tumors were allowed to establish to approximately 100 mm^3, after which mice where tumor size-matched and allocated to five per treatment group (vehicle or PLX4720). WNT3A-IRES-GFP tumors grew slower and therefore the first day of treatment was day 14 while GFP expressing tumors were first treated on day 9. Treatment was by oral gavage once daily with 5% DMSO in 1% carboxymethyl cellulose or 50 mg/kg PLX4720 in 1% carboxymethyl cellulose (604 mM PLX4720 in DMSO was diluted 1:20 in 1% carboxymethylcellulose). Tumor size was determined by caliper measurements of tumor length and width every 3 to 4 days. Tumor volume was then calculated using the following formula: volume=(width)^2×length/2. Tumors were harvested 2 hours after the last dose and fixed in neutral-buffered formalin overnight at room temperature.

[6] = system: AXIN1; test: Immunoblot of steady-state AXIN1 levels in melanoma cells; format: cell-based, human
[7] = system: β-catenin; test: Cytosolic and nuclear β-catenin fractionation; format: cell-based, human; conditions: A375, 24 hours
Procedure: Cytosolic and Nuclear β-catenin Fractionation. Cells were plated in 100 mm dishes. 24 hours following plating, cells were treated with the indicated conditions for 24 hours. Cells were gently rinsed with PBS and harvested by scraping in 500 uL of hypotonic lysis buffer (50 mM HEPES pH 8.0, 1 mM EDTA, 1 mM DTT) containing protease and phosphatase inhibitors. Cells were swelled on ice for 30 minutes and then passed through a 27 gauge needle ten times and checked for complete lysis with a microscope. Lysates were centrifuged at 10,000×g for 20 minutes and supernatant was collected as the cytosolic fraction. Pelleted membranes were washed 5 times with hypotonic lysis buffer and then solubilized with solubilization buffer (50 mM Tris pH 8.0, 150 mM NaCl, 0.1% SDS, 0.5% sodium deoxycholate, 1% Triton X-100) containing protease and phosphatase inhibitors. After a 30 minute incubation on ice, lysates were centrifuged at 16,000×g for 20 minutes. The protein concentration of the cleared supernatant was determined by BCA analysis and an equal amount of protein and volume was then incubated with pre-washed Con A sepharose beads overnight at 4 degree C. Supernatant was collected as the nuclear fraction.

[8] = system: A375 cells; test: Spheroid assay in three-dimensional collagen matrix; format: cell-based, human
Procedure: Spheroid Assay. A375 cells were used for the spheroid assays. Spheroids were formed and implanted in collagen as previously described (54). Spheroids were treated with indicated conditions 30 minutes after collagen polymerization. Images were obtained on a Nikon TiE inverted widefield high-resolution microscope (Nikon Melville, N.Y.).

[9] = system: SKMEL5; test: Flow cytometry for active (cleaved) caspase-3, SKMEL5; format: cell-based, human; conditions: 2 uM PLX4720, 24 hours, in % (unit assumed)
Procedure: as §1, §2

[10] = system: β-catenin; test: Immunoblot for β-catenin phosphorylation at Ser33/Ser37/Thr41 in A375 cells; format: cell-based, human
[11] = A375, WNT3A and PLX4720 time course

CCCS(=O)(=O)Nc1ccc(F)c(C(=O)c2c[nH]c3ncc(Cl)cc23)c1F [PLX4720, N-[3-[(5-Chloro-1H-pyrrolo[2,3-b]pyridin-3-yl)carbonyl]-2,4-difluorophenyl]-1-propanesulfonamide]
cleaved caspase-3-positive cells ([1]; AXIN1/2 siRNA, L CM): 12.67 ± 0.89
cleaved caspase-3-positive cells ([1]; AXIN1/2 siRNA, W3A CM): 15.07 ± 1.6
cleaved caspase-3-positive cells ([1]; Control siRNA, L CM): 3.39 ± 0.17
cleaved caspase-3-positive cells ([1]; Control siRNA, W3A CM): 4.45 ± 0.41
cleaved caspase-3-positive cells ([2]; AXIN1/2 siRNA, L CM): 31.47 ± 0.13
cleaved caspase-3-positive cells ([2]; AXIN1/2 siRNA, W3A CM): 33.93 ± 4.1
cleaved caspase-3-positive cells ([2]; Control siRNA, L CM): 6.02 ± 0.63
cleaved caspase-3-positive cells ([2]; Control siRNA, W3A CM): 8.64 ± 1.9
phosphorylation of BimEL ([3]; A375, 2 μM PLX4720, 24 hours): decreased phosphorylation of the largest Bim isoform, BimEL
phosphorylation of Ser75 on BAD ([3]; A375, 24 hours): decreased Ser75 phosphorylation
BimL and BimS levels ([3]; A375, combination of WNT3A and PLX4720, 24 hours): marked increase in BimL and BimS
drug reduction indices ([4]; combination of WNT3A CM and PLX4720, at 50% growth inhibition): 8.1
combination indices (inhibition of cell growth) ([4]; combination of WNT3A and PLX4720, 48 hours): less than 1
tumor growth ([5]; A375:GFP tumors): decreased tumor growth compared to drug vehicle
tumor growth ([5]; A375:WNT3A tumors, over four weeks): near complete suppression
steady-state levels of AXIN1 ([6]; A375, Mel624, and COLO829, WNT3A plus 2 μM PLX4720 vs WNT3A alone, 24 hours): markedly reduced
time after which almost no detectable AXIN1 remained [6, 11]: 16 to 20 h
time to rapid decrease in steady-state levels of AXIN1 [6, 11]: 1 to 2 h
steady-state AXIN1 levels ([6]; SKMEL5, SKMEL28 and A2058, WNT3A plus 2 μM PLX4720 vs WNT3A alone, 24 hours): did not significantly decrease
steady-state levels of AXIN1 ([6]; absence of rWnt3A): slightly decreased
steady-state levels of AXIN1 ([6]; presence of rWnt3A): markedly diminished
steady-state levels of cytosolic or nuclear β-catenin [7]: did not result in increased steady-state levels of cytosolic or nuclear β-catenin
spheroid size ([8]; A375:GFP- and A375:WNT3A-derived spheroids, 2 μM PLX4720, 72 hours): decreased spheroid size
dead cells (EtBr staining) ([8]; spheroids expressing WNT3A, 2 μM PLX4720, 24 hours): detection of dead cells
number of invasive cells ([8]; spheroids expressing WNT3A, 2 μM PLX4720, 72 hours): dramatic decrease in the number of invasive cells
cleaved caspase-3-positive cells ([9]; AXIN1/2 siRNA, L CM): 11.88 ± 0.18
cleaved caspase-3-positive cells ([9]; AXIN1/2 siRNA, W3A CM): 13.13 ± 2.7
cleaved caspase-3-positive cells ([9]; Control siRNA, L CM): 3.39 ± 0.22
cleaved caspase-3-positive cells ([9]; Control siRNA, W3A CM): 4.28 ± 1.2
phosphorylation of β-catenin at GSK3β sites (Ser33/Ser37/Thr41) [10]: decreased phosphorylation of β-catenin
